Literature values, collected in paper PMC8198792, “Prediction of Anticancer Peptides with High Efficacy and Low Toxicity by Hybrid Model Based on 3D Structure of Peptides” (International Journal of Molecular Sciences, 2021).
Like-named read-outs stand apart in the source and are kept apart here.

Test system: cancer cell lines
Set-up: method as in 6 sources, ref CancerPPD [45] and SATPdb ||| ref CancerPPD/SATPdb ||| ref CancerPPD, SATPdb, Swissprot (PDB) ||| ref CancerPPD/SATPdb/Swissprot(PDB) ||| ref CancerPPD / SATPdb ||| ...
Conditions: cited from earlier work
Source text: Supplement ijms-22-05630-s001.zip/ACPs(seguence).xlsx, sheet "D1" | column: Activity || Supplement ijms-22-05630-s001.zip/ACPs(seguence).xlsx, sheet "D2" | column: Activity || Supplement ijms-22-05630-s001.zip/ACPs(seguence).xlsx, sheet "D3" | column: Activity || (+ 2 further places)

[1] = ACPs dataset D2 (supplement ACPs(seguence).xlsx, sheet D2), dataset label 1/0 (ACP / non-ACP), entries identified by Swissprot(PDB ID), ref CancerPPD/SATPdb/Swissprot(PDB)
[2] = ACPs dataset D5, sheet "D5", label 1 = ACP, 0 = non-ACP, ref CancerPPD [45] and SATPdb
[3] = ACPs dataset D1, 1 = ACP (positive), 0 = non-ACP (negative), label taken from databases, ref CancerPPD [45] and SATPdb
[4] = ACPs dataset D4 (sheet "D4"), label 1 = ACP, experimentally validated ACPs, ref CancerPPD [45] and SATPdb
[5] = ACPs dataset D5 (sheet "D5"), label 1 = ACP (positive set), sequences with CancerPPD/SATPdb ID, ref CancerPPD, SATPdb
[6] = ACPs dataset sheet D2, 1 = ACP (CancerPPD/SATPdb ID), 0 = non-ACP (Swissprot/PDB ID), ref CancerPPD, SATPdb, Swissprot (PDB)
[7] = ACPs dataset D1, label 1 = ACP, 0 = non-ACP (non-anticancer AMPs from SATPdb), ref CancerPPD/SATPdb
[8] = ACPs dataset D4 (sheet "D4"), label 1 = ACP (CancerPPD ID), 0 = non-ACP (non-anticancer AMP, SATPdb ID), ref CancerPPD [45] and SATPdb
[9] = ACPs dataset D3 (supplement sheet "D3"), 1 = ACP, 0 = non-ACP, ref CancerPPD [45] and SATPdb
[10] = ACPs dataset D5 (sheet "D5"), label 1 = ACP (positive set), 0 = non-ACP (negative set), ref CancerPPD [45] and SATPdb
[11] = ACPs dataset D4 (sheet "D4"), label 1 = ACP, 0 = non-ACP, ref CancerPPD / SATPdb
[12] = ACPs dataset D3 (sheet "D3"), label 1 = ACP, 0 = non-ACP, ref CancerPPD/SATPdb

Substance	Activity [3]	Activity [4]	Activity [5]	Activity [6]	also measured
DIEDFYTSETCPYKNDSQLAWDTCSGGTGNCGTVCCGQCFSFPVSQSCAGMADSNDCPNA [2NSW NMR - A 1-60]	–	–	–	–	Activity [1]: 0; Activity [2]: 0
TTITGKKCQSWAAMFPHRHSKT [satpdb18336]	1	1	1	1	–
MEPECNLNCTD [satpdb10075]	1	1	1	1	–
GSIPCAESCVYIPCITGIAGCSCKNKVCYYN [satpdb12154]	–	–	–	–	Activity [7]: 0; Activity [8]: 0
ALWKTLLKKVLKA [satpdb10405]	–	–	–	–	Activity [9]: 0
YGRKKRRQRRRREADFFWSLCTADMS [compound 3718]	1	1	1	1	–
HGSTTLRDITV [satpdb28282]	1	1	1	1	–
GCPRILMRCKQDSDCLAGCVCGPNGFCGSP [1H9H X-ray 1.50 I 1-30]	–	–	–	0	Activity [10]: 0
KRRREKQRPCDKPRR [satpdb15198]	1	1	1	1	–
GVLDTFKDVAIGVAKGAGTGVLKALLCKLDKSC [satpdb13223]	–	–	–	–	Activity [7]: 0; Activity [11]: 0
GIFSSRKCKTPSKTFKGYCTRDSNCDTSCRYEGYPAGD [satpdb10659]	0	–	–	–	Activity [8]: 0
LPKWKVFKKIEKVGRNIRNGIVKAGPAIAVLGEAKALG [compound 4275]	–	–	–	–	Activity [9]: 1; Activity [8]: 1; Activity [10]: 1
KWKSFAKTFKSAKKTVAHTALKAISS [compound 1445]	1	1	1	1	–
GLFAVIKKVAAVIRRL [compound 4129]	–	–	–	–	Activity [9]: 1; Activity [8]: 1; Activity [10]: 1
KWKSFlKTFKSlKKTVLHTLLKAISS [compound 3770]	–	–	–	–	Activity [9]: 1; Activity [8]: 1; Activity [10]: 1
FLPVIAGLAAKVLPKLFCAITKKC [satpdb12195]	–	–	–	–	Activity [7]: 0; Activity [8]: 0
ILPWKWPWWPWRR [compound 1827]	1	1	1	1	–
TITLSTCAILSKPLGNNGYLCTVTKECMPSSCN [satpdb12698]	–	–	–	–	Activity [7]: 0; Activity [8]: 0
TLPFAYCNIHQVCHYAQRNDRSYWL [satpdb12859]	1	1	1	1	–
KSVRGKGKGQKRKRKKSRYK [satpdb21584]	1	1	1	1	–

Substance	Activity [3]	Activity [4]	Activity [5]	Activity [6]	also measured
AEVAPAPAAAAPAKAPKKKAAAKPKKAGPS [satpdb11318]	0	–	–	–	Activity [8]: 0
GFGCPFNQYECHAHCSGVPGYKGGYCKGLFKQTCNCY [satpdb12844]	–	–	–	–	Activity [7]: 0; Activity [11]: 0
ANIKLSVQMKLFKRHLKWKIIVKLNDGRELSLDA [satpdb18078]	1	1	1	1	–
TFRAFLSSRLQDLYSIVRRADRAAV [compound 4202]	1	1	1	1	–
SFGLCRLRRGFCARGRCRFPSIPIGRCSRFVQCCRRVW [1UT3 NMR - A 1-38]	–	–	–	–	Activity [1]: 0; Activity [10]: 0
GPWERCTAQCGGGIQARRR [satpdb29089]	1	1	1	1	–
GFGMALOLLOOVL [compound 3597]	–	–	–	–	Activity [9]: 1; Activity [8]: 1; Activity [10]: 1
MVEPLLSGIVLGLIVVTLAGLFYAAYKQYKRPNELGG [4OGQ X-ray 2.50,G,1-37]	–	–	–	–	Activity [1]: 0; Activity [10]: 0
MTEEMLYAALLSFGLIFVGWGLGVLLLKIQGAEKE [4I7Z X-ray 2.80,F,1-35]	–	–	–	0	Activity [10]: 0
GMWKKILGKLIR [compound 3643]	–	–	–	–	Activity [9]: 1; Activity [8]: 1; Activity [10]: 1
EDMNQKLFDLRGKFKRPPLRRVRMSADAML [satpdb19871]	1	1	1	1	–
GLFDVIKKVASVIKGL [compound 4075]	–	–	–	–	Activity [9]: 1; Activity [8]: 1; Activity [10]: 1
KLLKKLLKWLK [satpdb13967]	–	–	–	–	Activity [12]: 0; Activity [11]: 0; Activity [2]: 0
RDCTSQSHKFVGLCLSDRNCASVCLTEYFTGGKCDHRRCVCTKGC [satpdb13162]	–	–	–	–	Activity [7]: 0; Activity [11]: 0
VGSGGCMFGNGK [satpdb10083]	1	1	1	1	–
ILPWKWPWAPARR [satpdb12615]	–	–	–	–	Activity [12]: 0; Activity [11]: 0; Activity [2]: 0
SPWSPCSGNCSTGKQQRTR [satpdb11308]	1	1	1	1	–
CSNLSTCVLGKLSQELHKLQTYPRTDVGAGTP [1BKU NMR - A 1-32]	–	–	–	0	Activity [10]: 0
GVDITVIRPNH [satpdb22601]	1	1	1	1	–
ECRRLCYKQRCVTYCRGR [compound 4435]	1	1	1	1	–

Substance	Activity [3]	Activity [4]	Activity [5]	Activity [6]	also measured
LLGMIPLAISAISALSKL [compound 4453]	1	1	1	1	–
KAFDITYVRLKF [satpdb20842]	1	1	1	1	–
KRGFGKKLRKRLKKFRNSIKKRLKNFNVVIPIPLPG [satpdb11105]	0	–	–	–	Activity [8]: 0
PAWRKARRWARRMKKLAA [compound 1618]	1	1	1	1	–
MPTWAWWLFLVLLLALWAPARG [satpdb27488]	1	1	1	1	–
KMWSKILGHLIR [compound 3511]	–	–	–	–	Activity [9]: 1; Activity [8]: 1; Activity [10]: 1
VVKCSYRLGSPDSQCN [satpdb13432]	–	–	–	–	Activity [7]: 0; Activity [11]: 0
HFLLTLKNLAKKIL [satpdb10120]	–	–	–	–	Activity [9]: 0; Activity [11]: 0; Activity [2]: 0
PEWFKCRRWQWRMKKLGA [compound 1604]	1	1	1	1	–
GKWKKILGHLIR [compound 3645]	–	–	–	–	Activity [9]: 1; Activity [8]: 1; Activity [10]: 1
IFGAILPLAL GALKNLIK [2N0O NMR - A 1-18]	–	–	–	0	Activity [10]: 0
PAWRKAFRAAWRMLKKAA [compound 1610]	1	1	1	1	–
AAPFLECQGRQGTCHFFAN [satpdb18859]	1	1	1	1	–
GLKEIFKAGLGSLVKGIAAHVAS [satpdb14561]	–	–	–	–	Activity [11]: 0; Activity [2]: 0
PPPEE [compound 1426]	–	–	–	–	Activity [9]: 1; Activity [8]: 1; Activity [10]: 1
GVWSTILGGLKKFAKGGLDAIVNPK [satpdb10425]	0	–	–	–	Activity [8]: 0
GWIRDFGKRIERVGQHTRDATIQTIAVAQQAANVAATLKG [satpdb12541]	–	–	–	–	Activity [7]: 0; Activity [8]: 0
TAWGPCSTTCGLGMATRV [satpdb13892]	1	1	1	1	–
NHFTLKCPKTALTEPPTLAY [compound 3362]	1	1	1	1	–
